Where a name gives a salt, the structure may show the parent alone.
Tests used:
[1] = molecular target: T1, Aromatase (Homo sapiens, UniProt P11511); test: Aromatase inhibitory activity (Pharmacological Test 1, human placenta microsome); format: biochemical; settings: substrate 4-androsten-3,17-dione 1.0×10^-6 M, read-out: AI-IC50
T1 construct: human placenta microsome; from tissue; host or cells: human placenta microsomes
T1 sequence (P11511 1-503): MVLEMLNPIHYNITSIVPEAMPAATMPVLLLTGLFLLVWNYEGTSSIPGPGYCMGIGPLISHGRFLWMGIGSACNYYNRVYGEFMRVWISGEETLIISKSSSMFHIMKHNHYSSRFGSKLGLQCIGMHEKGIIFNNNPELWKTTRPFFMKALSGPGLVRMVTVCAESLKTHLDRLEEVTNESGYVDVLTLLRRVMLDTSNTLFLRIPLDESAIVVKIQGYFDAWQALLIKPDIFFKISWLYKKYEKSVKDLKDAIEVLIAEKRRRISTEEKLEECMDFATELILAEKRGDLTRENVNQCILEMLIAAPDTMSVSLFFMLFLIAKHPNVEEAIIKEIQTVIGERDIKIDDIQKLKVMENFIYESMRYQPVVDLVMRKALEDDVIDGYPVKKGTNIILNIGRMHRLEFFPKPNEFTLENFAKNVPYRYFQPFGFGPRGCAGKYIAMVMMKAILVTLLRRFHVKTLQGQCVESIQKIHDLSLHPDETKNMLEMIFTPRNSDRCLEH
Procedure: Aromatase inhibitory activity was determined according to the method of E. A. Thompson and P. K. Siiteri [J. Biol. Chem., 249, 5364-5372 (1974)]. The each compound to be tested was added to a reaction vial containing human placenta microsome, [1β,2 β-^3 H]4-androsten-3,17-dione (3.3 kBq/500 pmol) and NADPH. […] The obtained [^3 H]H2 O was measured by a liquid scintillation counter. The measured quantity of [3H]H20 was used to determine aromatase activity, and was compared with the activity when incubated without inhibitor to calculate inhibition ratio (%).

[2] = molecular target: T2, cholesterol side-chain cleaving enzyme (Sus scrofa, UniProt P10612); test: Inhibitory activity against cholesterol side-chain cleaving enzyme (Pharmacological Test 2, porcine adrenal mitochondria); format: biochemical; settings: substrate 5-cholesten-3β-ol 5.0×10^-6 M, read-out: SCC-IC50
T2 construct: porcine adrenal mitochondria; from tissue; host or cells: porcine adrenal mitochondria
T2 sequence (P10612 40-520): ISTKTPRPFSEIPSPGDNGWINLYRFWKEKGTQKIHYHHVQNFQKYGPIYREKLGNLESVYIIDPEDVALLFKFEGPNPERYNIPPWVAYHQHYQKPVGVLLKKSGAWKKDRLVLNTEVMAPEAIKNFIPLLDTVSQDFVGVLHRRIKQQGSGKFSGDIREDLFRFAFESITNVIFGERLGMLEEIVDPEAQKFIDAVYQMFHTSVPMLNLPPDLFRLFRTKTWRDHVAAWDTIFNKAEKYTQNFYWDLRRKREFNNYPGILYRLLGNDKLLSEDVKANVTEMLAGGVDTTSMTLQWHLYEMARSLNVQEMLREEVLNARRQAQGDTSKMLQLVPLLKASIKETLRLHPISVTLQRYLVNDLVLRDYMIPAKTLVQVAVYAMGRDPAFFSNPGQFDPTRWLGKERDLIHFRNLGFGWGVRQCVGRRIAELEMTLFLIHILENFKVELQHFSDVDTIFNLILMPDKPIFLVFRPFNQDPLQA
Procedure: Inhibitory activity against cholesterol side-chain cleaving enzyme was determined according to the method of M. Shikita and P. F. Hall [Proc. Nat. […] Briefly, the each compound to be tested was added to a reaction vial containing porcine adrenal mitochondria, [4-^14 C]5-cholesten-3β-ol (250 Bq/5 nmol) and NADPH. […] These were separated by extracting the reaction mixture with methylene-dichloride followed by purifying with thin-layer chromatography. Substrate (5-cholesten-3β-ol) and reaction product (3β-hydroxypregn-5-en-20-one) were respectively measured by a liquid scintillation counter. The measured quantity of 3β-hydroxypregn-5-en-20-one was used to determine cholesterol side-chain cleaving activity which was compared with the activity when incubated without inhibitor to calculate inhibition ratio (%).

Compound | IC50 [1] | IC50 [2]
CCCCN(c1ccccc1)c1nc(-n2ccnc2)nc(-n2ccnc2)n1 [Compound 50, 2-(N-n-Butyl-N-phenylamino)-4,6-bis (1-imidazolyl)-1,3,5-triazine] | 16 nM | 15000 nM
CN(c1ccccc1)c1nc(-n2ccnc2)nc(-n2ccnc2)n1 [Compound 32, 2,4-Bis(1-imidazolyl)-6-(N-methyl-N-phenylamino)-1,3,5-triazine] | 29 nM | 16000 nM
CCN(CC)c1nc(-n2ccnc2)nc(-n2ccnc2)n1 [Compound 25, 2,4-Bis(1-imidazolyl)-6-diethylamino-1,3,5-triazine] | 60 nM | 25000 nM
c1ccc(C2CCN(c3nc(N4CCSCC4)nc(-n4ccnc4)n3)CC2)cc1 [Compound 39, 2-(1-Imidazolyl)-4-(4-phenylpiperidino)-6-thiomorpholino-1,3,5-triazine] | 20 nM | 37000 nM
Cc1ncn(-c2nc(N(C)C)nc(-n3ccnc3)n2)c1C [Compound 5, 2-(1-Imidazolyl)-4-dimethylamino-6-(4,5-dimethyl-1-imidazolyl)-1,3,5-triazine] | 200 nM | > 100000 nM
CC(C)(C)OC(=O)C1CCCN1c1nc(N2CCOCC2)nc(-n2ccnc2)n1 (stereo not drawn) [Compound 41, 2-(2-tert-Butoxycarbonyl-1-pyrrolidinyl)-4-(1-imidazolyl)-6-morpholino-1,3,5-triazine] | 37 nM | > 100000 nM
CN(C)c1nc(N2CCCCC2)nc(-n2ccnc2)n1 [Compound 3, 2-(1-Imidazolyl)-4-dimethylamino-6-piperidino-1,3,5-triazine] | 770 nM | > 100000 nM
CN(C)c1nc(N2CCOCC2)nc(-n2ccnc2)n1 [Compound 1, 2-(1-Imidazolyl)-4-dimethylamino-6-morpholino-1,3,5-triazine] | 10 nM | > 100000 nM
c1cn(-c2nc(N3CCCC3)nc(-n3ccnc3)n2)cn1 [Compound 26, 2,4-Bis(1-imidazolyl)-6-(1-pyrrolidinyl)-1,3,5-triazine] | 62 nM | > 100000 nM
c1cn(-c2nc(N3CCSCC3)nc(N3CCSCC3)n2)cn1 [Compound 21, 2-(1-Imidazolyl)-4,6-bis(thiomorpholino)-1,3,5-triazine] | 5.1 nM | 100000 nM
CN(C)c1nc(-n2ccnc2)nc(-n2ccnc2)n1 [Compound 24, 2,4-Bis(1-imidazolyl)-6-dimethylamino-1,3,5-triazine] | 550 nM | 80000 nM
CN(c1ccccc1)c1nc(N2CCOCC2)nc(-n2ccnc2)n1 [Compound 14, 2-(1-Imidazolyl)-4-(N-methyl-N-phenylamino)-6-morpholino-1,3,5-triazine] | 6.7 nM | 31000 nM
CN(C)c1nc(N(C)C)nc(N(C)C)n1 [HMM, hexamethylmelamine, reference compound] |  | > 100000 nM
CCCCN(CCCC)c1nc(-n2ccnc2)nc(-n2ccnc2)n1 [Compound 36, 2-(Di-n-butylamino)-4,6-bis(1-imidazolyl)-1,3,5-triazine] | 14 nM | 12000 nM
CN(c1ccc(Cl)cc1)c1nc(-n2ccnc2)nc(-n2ccnc2)n1 [Compound 54, 2-[N-(4-Chlorophenyl)-N-methylamino]-4,6-bis(1-imidazolyl)-1,3,5-triazine] | 8.6 nM | 19000 nM
CN(C)c1nc(N2CCCC2)nc(-n2ccnc2)n1 [Compound 2, 2-(1-Imidazolyl)-4-dimethylamino-6-(1-pyrrolidinyl)-1,3,5-triazine] | 1300 nM | > 100000 nM
CN(c1ccc([N+](=O)[O-])cc1)c1nc(-n2ccnc2)nc(-n2ccnc2)n1 [Compound 52, 2,4-Bis(1-imidazolyl)-6-[N-methyl-N-(4-nitrophenyl)amino]-1,3,5-triazine] | 10 nM | > 100000 nM
c1cn(-c2nc(N3CCCCC3)nc(N3CCCCC3)n2)cn1 [Compound 18, 2-(1-Imidazolyl)-4,6-dipiperidino-1,3,5-triazine] | 310 nM | > 100000 nM
c1ccc(C2CCN(c3nc(-n4ccnc4)nc(-n4ccnc4)n3)CC2)cc1 [Compound 28, 2,4-Bis(1-imidazolyl)-6-(4-phenylpiperidino)-1,3,5-triazine] | 62 nM | 9500 nM
CCC1(c2ccc(N)cc2)CCC(=O)NC1=O (stereo not drawn) [AG, aminoglutethimide, reference compound] |  | 66000 nM

Further lines, results first:

IC50 [1] | IC50 [2] | Compound
33 nM | > 100000 nM | c1cnc(N2CCN(c3nc(N4CCOCC4)nc(-n4ccnc4)n3)CC2)nc1 [Compound 44, 2-(1-Imidazolyl)-4-morpholino-6-[4-(2-pyrimidinyl)-1-piperazinyl]-1,3,5-triazine]
20 nM | > 100000 nM | Fc1ccc(N2CCN(c3nc(N4CCOCC4)nc(-n4ccnc4)n3)CC2)cc1 [Compound 43, 2-[4-(4-Fluorophenyl)-1-piperazinyl]-4-(1-imidazolyl)-6-morpholino-1,3,5-triazine]
17 nM | 15000 nM | c1ccc(CN2CCN(c3nc(N4CCOCC4)nc(-n4ccnc4)n3)CC2)cc1 [Compound 9, 2-(4-Benzyl-1-piperazinyl)-4-(1-imidazolyl)-6-morpholino-1,3,5-triazine]
32 nM | > 100000 nM | CN(c1ccc(N)cc1)c1nc(N2CCOCC2)nc(-n2ccnc2)n1 [Compound 56, 2-[N-(4-Aminophenyl)-N-methylamino]-4-(1-imidazolyl)-6-morpholino-1,3,5-triazine]
11 nM | 54000 nM | c1ccc(N2CCN(c3nc(N4CCOCC4)nc(-n4ccnc4)n3)CC2)nc1 [Compound 8, 2-(1-Imidazolyl)-4-morpholino-6-[4-(2-pyridyl)-1-piperazinyl]-1,3,5-triazine]
24 nM | 66000 nM | CCOC(=O)C1CCN(c2nc(N3CCOCC3)nc(-n3ccnc3)n2)CC1 [Compound 40, 2-(4-Ethoxycarbonylpiperidino)-4-(1-imidazolyl)-6-morpholino-1,3,5-triazine]
44 nM | > 100000 nM | OCCC1CCCCN1c1nc(N2CCOCC2)nc(-n2ccnc2)n1 (stereo not drawn) [Compound 47, 2-[2-(2-Hydroxyethyl)piperidino]-4-(1-imidazolyl)-6-morpholino-1,3,5-triazine]
7.2 nM | > 100000 nM | O=[N+]([O-])c1ccc(N2CCN(c3nc(N4CCOCC4)nc(-n4ccnc4)n3)CC2)cc1 [Compound 45, 2-(1-Imidazolyl)-4-morpholino-6-[4-(4-nitrophenyl)-1-piperazinyl]-1,3,5-triazine]
53 nM | 100000 nM | OC1CCN(c2nc(N3CCOCC3)nc(-n3ccnc3)n2)CC1 [Compound 46, 2-(4-Hydroxypiperidino)-4-(1-imidazolyl)-6-morpholino-1,3,5-triazine]
31 nM | > 100000 nM | Nc1ccc(N2CCN(c3nc(N4CCOCC4)nc(-n4ccnc4)n3)CC2)cc1 [hydrochloride of No. 57, Hydrochloride of 2-[4-(4-aminophenyl)-1-piperazinyl]-4-(1-imidazolyl)-6-morpholino-1,3,5-triazine]
24 nM | > 100000 nM | c1cn(-c2nc(N3CCOCC3)nc(N3CCC4(CC3)OCCO4)n2)cn1 [Compound 12, 2-(4,4-Ethylenedioxypiperidino)-4-(1-imidazolyl)-6-morpholino-1,3,5-triazine]

From patent US5489591A, “S-triazine derivative and remedy for estrogen-dependent disease containing said derivative as effective component” (Zenyaku Kogyo Kabushiki Kaisha, priority 1992, dated 1996)
